Assay results reported in patent publication US7312248B2, “Control of parasites in animals by the use of novel trifluoromethanesulfonanilide oxime ether derivatives” (Schering-Plough Animal Health Corporation, priority 2004, dated 2007).
Where two headings read alike, the source gives them in different places.

How the values were obtained:
Format in all cases: in vivo
[1] = tested on: cat flea (Ctenocephalides felis); test: whole plant or invertebrate; settings: Ctenocephalides felis
Summary of the method: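 Single-dose screen at 1.26 μg/cm^2: acetone solution dried for 24 h on a Coatasil-treated 159 mm^2 flask base, then 15 adult cat fleas aged 3-7 days per flask, four or more replicates, acetone control. Percent dead, meaning not moving or unable to right themselves, recorded after 8, 24 and/or 48 h at 25 °C and 75% RH.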

Haemonchus contortus = Haemonchus contortus larvacidal (larval development) assay; settings: 144 h, read-out: Haemonchus contortus LD99
Method: a) Haemonchus Contortus Larvacidal Assay:
The effect of compounds on larval development was determined in the assay described by Gill et al. (1995, International Journal of Parasitology 25:463-470). Briefly, in this assay, nematode eggs were applied to the surface of an agar matrix containing the test compound and then allowed to develop through to the L3, infective stage (6 days). The wells for each dilution of every compound (from highest to lowest concentration) were inspected to determine the well number corresponding to the lowest concentration at which development was inhibited in 99% of the nematode larvae present (LD99). Because well numbers correspond to a two-fold serial dilution of each compound, a titre (dilution factor) is generated as 2^n−1, where n is the well number. By dividing the highest concentration tested by the titre an LD99 value can be obtained, representing the concentration required to inhibit development in 99% of the nematode larvae present. The compounds supplied as solid and viscous liquids were dissolved in DMSO. Twelve serial one-half dilutions in DMSO solution were prepared from the stock solution, each of which was then diluted ⅕ with water. Aliquots (10 μl) of each dilution were transferred to the bioassay plates to give a final concentration range of 0.024 to 50 μg/ml.

[2] = tested on: cat flea (Ctenocephalides felis); test: Ctenocephalides felis adulticide assay: dose response (LC50)
Text: c) Ctenocephalides felis Adulticide Assay: C. felis Dose Response
The purpose of this example was to determine the LC50 when cat fleas were contacted with a glass surface treated with sample compounds or formulations prepared as described above. Mortality of fleas was defined as follows: fleas were considered dead if they didn't move or were on their sides and unable to walk or right themselves. LC50: Lethal Concentration 50—concentration of glass surface treatment at which 50% of the cat fleas were killed. The test species was the cat flea (Ctenocephalides felis). The strain used was obtained from external suppliers as pupae and held in the laboratory under testing conditions until the adults had emerged. Fifteen (15) fleas were used in a minimum of four replicates for each dose level (total of 60 fleas per dose level). The insects were selected to be in the adult life stage, aged between 3 and 7 days post emergence.
The compounds to be tested were dissolved in acetone just prior to testing. Samples of compounds were stored in a refrigerator (5±1° C.) unless otherwise specified. During the mortality testing, the temperature was maintained at 25+1° C. Humidity was maintained at 75±5%. The base (area=159 mm^2) of a 100 mL glass Erlenmeyer (conical) flask provided the treatment surface. Flasks were pretreated with Coatasil™ glass treatment to maximise bio-availability of test compounds by preventing them from binding to the glass surface.
Six dose levels (concentrations) of test sample, in the form of a serial dilution, were derived from a pilot study and covered a range that produced very low to very high mortality. The base of the 100 mL Erlenmeyer flask was treated with 0.5 mL of test sample in acetone and gently swirled. This volume was sufficient to cover the base of the flask. Flasks were left to dry for 24 hours before flea exposure. Adult cat fleas were lightly anaesthetised by cooling and then placed into a sorting chamber, which allowed fleas to revive and jump into the Erlenmeyer flasks. Fifteen (15)adult cat fleas were collected in each flask. The top of the flasks were then covered in Parafilm™ and small holes made to allow gas exchange. A 0.5 mL volume of acetone was applied to the base of an Erlenmeyer flask and the testing proceeded in the same manner described above. Cat fleas in the treatment containers were held under testing conditions for 24 hours. Mortality resulting from the treatments was recorded at 8 and 24 hours.

[3] = 8 h, read-out: C. felis Mortality (%) 8 h, 8 h, Laboratory 1 A data
[4] = 24 h, read-out: C. felis Mortality (%) 24 h, 24 h, Laboratory 1 A data
[5] = 8 h, read-out: C. felis Mortality (%) 8 h, 8 h, Laboratory 2 B data
[6] = 24 h, read-out: C. felis Mortality (%) 24 h, 24 h, Laboratory 2 B data
[7] = 8 h, read-out: Ctenocephalides felis Mortality (%) 8 h
[8] = 24 h, read-out: Ctenocephalides felis Mortality (%) 24 h
[9] = lowest concentration inhibiting development in 99% of larvae, eggs to L3, 6 days, range 0.024 to 50 μg/ml

SMILES | mortality at 1.26 µg/cm2, 1.26 µg/cm2 [1, 3] [%] | mortality at 1.26 µg/cm2, 1.26 µg/cm2 [1, 4] [%] | IC99 (Haemonchus contortus) [µg/mL] | C. felis LC50 ([2]; Laboratory 1 C data) [μg/cm^2] | further results
CC/C(=N\OCc1cccc(Cl)c1Cl)c1cc(Cl)ccc1NS(=O)(=O)C(F)(F)F [Compound 72] | 13 | 63 | 0.3 | 0.5 | 
CC/C(=N\Oc1cccc(Cl)c1)c1cc(Cl)ccc1NS(=O)(=O)C(F)(F)F [Compound 131] |  | 100 | 1.6 | 0.7 | 
C/C(=N\OC(C)c1ccc(Cl)cc1)c1cc(Cl)ccc1NS(=O)(=O)C(F)(F)F (stereo not shown) [Compound 123] | 11 |  | 0.9 | 1.2 | C. felis LC50 ([2]; Laboratory 2 D data): 0.3 μg/cm^2
CC/C(=N\Oc1ccc(Cl)c(Cl)c1)c1cc(Cl)ccc1NS(=O)(=O)C(F)(F)F [Compound 139] |  | 64 | 0.9 |  | C. felis LC50 ([2]; Laboratory 2 D data): 0.3^D μg/cm^2
C/C(=N\OCC(C)C)c1cc(Cl)ccc1NS(=O)(=O)C(F)(F)F [Compound 172] |  | 100 |  | 0.06 | 
C/C(=N\Oc1cccc(C(F)(F)F)c1)c1cc(Cl)ccc1NS(=O)(=O)C(F)(F)F [Compound 134, N-{4-chloro-2-[1-(3-trifluoromethylphenoxyimino)ethyl]phenyl}trifluoromethanesulfonamide] |  | 96 | 0.4 | 0.4 | 
C/C(=N\OC1CCCC1)c1cc(Cl)ccc1NS(=O)(=O)C(F)(F)F [Compound 163, N-[4-chloro-2-(1-cyclopentyloxyiminoethyl)phenyl]trifluoromethanesulfonamide] |  | 100 |  | 0.1 | 
C/C(=N\OC1CCCCC1)c1cc(Cl)ccc1NS(=O)(=O)C(F)(F)F [Compound 161] |  | 100 |  | 0.2 | 
O=S(=O)(Nc1ccc(Cl)cc1/C(=N/OCc1ccc(C(F)(F)F)cc1)c1ccccc1)C(F)(F)F [Compound 24] |  | 43 | 2.5 |  | C. felis LC50 ([2]; Laboratory 2 D data): 0.8^D μg/cm^2
C/C(=N\OC(C)C)c1cc(Cl)ccc1NS(=O)(=O)C(F)(F)F [Compound 158] |  | 100 |  | 0.2 | 
CC/C(=N\OCC(C)C)c1cc(Cl)ccc1NS(=O)(=O)C(F)(F)F [Compound 159] |  | 100 |  | 0.2 | 
C/C(=N\Oc1ccc(Cl)cc1)c1cc(Cl)ccc1NS(=O)(=O)C(F)(F)F [Compound 127] |  | 90 | 0.4 | 0.3 | 
CC/C(=N\OCc1ccccc1Cl)c1cc(Cl)ccc1NS(=O)(=O)C(F)(F)F [Compound 10] | 56 | 73 | 2.7 | 0.3 | 
C=CCO/N=C(\C)c1cc(Cl)ccc1NS(=O)(=O)C(F)(F)F [Compound 181] |  | 100 |  | 0.1 | 
CCC/C(=N\OCc1ccc(C(F)(F)F)cc1C(F)(F)F)c1cc(Cl)ccc1NS(=O)(=O)C(F)(F)F [Compound 98] | 79 |  | 1.4 |  | 
C/C(=N\OCc1ccc(C#N)cc1)c1cc(Cl)ccc1NS(=O)(=O)C(F)(F)F [Compound 73] | 1 |  | 5 |  | 
CCC/C(=N\OCC1CCCCC1)c1cc(Cl)ccc1NS(=O)(=O)C(F)(F)F [Compound 111] |  |  | 5 |  | mortality at 1.26 µg/cm2, 1.26 µg/cm2 [1, 5]: 9%; mortality at 1.26 µg/cm2, 1.26 µg/cm2 [1, 6]: 70%
CC/C(=N\OC1C=CCCC1)c1cc(Cl)ccc1NS(=O)(=O)C(F)(F)F (stereo not shown) [Compound 170] |  | 97 |  | 0.2 | 
O=S(=O)(Nc1ccc(Cl)cc1/C=N/OCc1ccc(C(F)(F)F)cc1C(F)(F)F)C(F)(F)F [Compound 65, N-{2-[(2,4-bistrifluoromethylbenzyloxyimino)methyl]-4-chlorophenyl}trifluoromethanesulfonamide] | 10 |  | 0.3 |  | 
CC/C(=N\OCc1ccc(C#N)cc1)c1cc(Cl)ccc1NS(=O)(=O)C(F)(F)F [Compound 91] |  | 67 | 13 |  | 
CC/C(=N\OCc1c(F)c(F)c(F)c(F)c1F)c1cc(Cl)ccc1NS(=O)(=O)C(F)(F)F [Compound 77] | 3 |  | 2.5 |  | 
O=S(=O)(Nc1ccc(Cl)cc1-c1cc(-c2ccc(F)cc2)on1)C(F)(F)F [Compound 228] |  |  |  |  | mortality at 1.26 µg/cm2 [1, 7]: 3%; mortality at 1.26 µg/cm2 [1, 8]: 3%; IC99 (Haemonchus contortus; [9]): 0.4 µg/mL
C/C(=N\Oc1ccccc1)c1cc(Cl)ccc1NS(=O)(=O)C(F)(F)F [Compound 125] | 6 |  | 5.5 |  | 
CC/C(=N\OCc1ccc(F)cc1F)c1cc(Cl)ccc1NS(=O)(=O)C(F)(F)F [Compound 84] | 95 |  | 3.3 |  | 
O=S(=O)(Nc1ccc(Cl)cc1-c1cc(-c2ccc(Cl)cc2Cl)on1)C(F)(F)F [Compound 229, N-{4-chloro-2-[5-(2,4-dichlorophenyl)isoxazol-3-yl]phenyl}trifluoromethanesulfonamide] |  |  |  |  | mortality at 1.26 µg/cm2 [1, 7]: 2%; mortality at 1.26 µg/cm2 [1, 8]: 7%; IC99 (Haemonchus contortus; [9]): 0.09 µg/mL
CC/C(=N\OC(CC)CC)c1cc(Cl)ccc1NS(=O)(=O)C(F)(F)F [Compound 171] |  | 100 |  | 0.4 | 
O=S(=O)(Nc1ccc(Cl)cc1/C=N/OCc1ccc(Cl)c(Cl)c1)C(F)(F)F [Compound 97, N-{4-chloro-2-[(3,4-dichlorobenzyloxyimino)methyl]phenyl}trifluoromethanesulfonamide] |  | 42 | 0.6 |  | 
C/C(=N\OCc1cc(C(F)(F)F)ccc1C(F)(F)F)c1cc(Cl)ccc1NS(=O)(=O)C(F)(F)F [Compound 120, N-{2-[1-(2,5-bistrifluoromethylbenzyloxyimino)ethyl]-4-chlorophenyl}trifluoromethanesulfonamide] | 2 |  | 0.5 |  | 
C/C(=N\OCc1ccc(Cl)cc1)c1cc(Cl)ccc1NS(=O)(=O)C(F)(F)F [Compound 16] |  |  | 1.3 |  | mortality at 1.26 µg/cm2, 1.26 µg/cm2 [1, 5]: 90%; mortality at 1.26 µg/cm2, 1.26 µg/cm2 [1, 6]: 100%
